Data as given in patent US11566007B2, “Ras inhibitors” (Revolution Medicines, Inc., priority 2019, dated 2023).

These molecules were tested on NCI-H358 (K-Ras G12C) (assay: CellTiter-Glo cell viability assay, NCI-H358). Settings: Homo sapiens, NCI-H358, 120 h, NCI-H358, 5-day treatment; class symbols; read-out: Additional H358 Cell Viability assay data (K-Ras G12C, IC50).
Assay type: cell-based, human
Method in brief: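 Compounds dispensed directly onto seeded K-Ras mutant cells; plates read on day 5 after ~30 min equilibration to room temperature, by CellTiter-Glo luminescence. Signal normalized as (sample/mean DMSO)×100, then fitted to a four-parameter logistic curve.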
`CO[C@@H](C)c1ncccc1-c1c2c3nc(ccc3n1CC(F)(F)F)-c1cccc(c1)C[C@H](NC(=O)[C@@H](COC1CN(C(=O)C#CC(C)(C)N(C)C)C1)C(C)C)C(=O)N1CCC[C@H](N1)C(=O)OCC(C)(C)C2` (atropisomer, axis not shown) [Example A724] was tested, and the IC50 was < 10 nM. In the case of `CCn1c(-c2cccnc2[C@H](C)OC)c2c3cc(ccc31)-c1cccc(c1)C[C@H](NC(=O)[C@H](C(C)C)N1CO[C@@]3(CCN(C(=O)C#CC(C)(C)N4CCC4)C3)C1=O)C(=O)N1CCC[C@H](N1)C(=O)OCC(C)(C)C2` (atropisomer, axis not shown) [Example A733], the IC50 is reported as < 10 nM. With `C=CC(=O)N1CCN(C(=O)N(C)[C@H](C(=O)N[C@H]2Cc3nc(cs3)-c3ccc4c(c3)c(c(-c3cccnc3[C@H](C)OC)n4CC)CC(C)(C)COC(=O)[C@@H]3CCCN(N3)C2=O)C(C)C)[C@@H]2C[C@@H]21` (atropisomer, axis not shown) [Example A736] the IC50 was < 10 nM. For `C=CC(=O)C1CC[C@H](C(=O)N(C)[C@H](C(=O)N[C@H]2Cc3cc(O)cc(c3)-c3ccc4c(c3)c(c(-c3cnn(C)c3[C@H](C)OC)n4CC)CC(C)(C)COC(=O)[C@@H]3CCCN(N3)C2=O)C(C)C)C1` (stereo partly shown) [Example A166], the IC50 was < 10 nM. In the case of `C=CC(=O)N1CC[C@H](C(=O)N(C)[C@H](C(=O)N[C@H]2Cc3cc(O)cc(c3)-c3ccc4c(c3)c(c(-c3cncc5c3[C@@H](OC)CC5)n4CC)CC(C)(C)COC(=O)[C@@H]3CCCN(N3)C2=O)C(C)C)C1` [Example A275], the IC50 is reported as < 10 nM. In the case of `C=CC(=O)N1CC[C@H](C(=O)N(C)[C@H](C(=O)N[C@H]2Cc3nc(ns3)-c3ccc4c(c3)c(c(-c3cncnc3)n4CC)CC(C)(C)COC(=O)[C@@H]3CCCN(N3)C2=O)C(C)C)C1` [Example A285], the IC50 is reported as > 1000 nM. In the case of `C=CC(=O)N1CC[C@H](C(=O)N(C)[C@H](C(=O)N[C@H]2Cc3cc(O)cc(c3)-c3ccc4c(c3)c(c(-c3cnn5c3[C@@H](OC)CCC5)n4CC)CC(C)(C)COC(=O)[C@@H]3CCCN(N3)C2=O)C(C)C)C1` [Example A300], the IC50 is reported as < 10 nM. In the case of `CCn1c(-c2cccnc2[C@H](C)OC)c2c3cc(ccc31)-c1cccc(c1)C[C@H](NC(=O)C(COC1CN(C(=O)C#CC(C)(C)N(C)C)C1)C(C)C)C(=O)N1CCC[C@H](N1)C(=O)OCC(C)(C)C2` (stereo partly drawn) [Example A316, (2R)-2-(((1-(4-(dimethylamino)-4-methylpent-2-ynoyl)azetidin-3-yl)oxy)methyl)-N-((6^3S,4S)-1^1-ethyl-1^2-(2-((S)-1-methoxyethyl)pyridin-3-yl)-10,10-dimethyl-5,7-dioxo-6^1,6^2,6^3,6^4,6^5,6^6-hexahydro-1^1H-8-oxa-1(5,3)-indola-6(1,3)-pyridazina-2(1,3)-benzenacycloundecaphane-4-yl)-3-methylbutanamide], the IC50 is reported as < 10 nM. In the case of `C=CC(=O)N1CCC(C(=O)N(C)[C@H](C(=O)N[C@H]2Cc3cc(CF)cc(c3)-c3ccc4c(c3)c(c(-c3cccnc3[C@H](C)OC)n4CC(F)(F)F)CC(C)(C)COC(=O)[C@@H]3CCCN(N3)C2=O)C(C)C)C1` (stereo partly shown) [Example A659], the IC50 is reported as < 10 nM. For `CCn1c(-c2cccnc2[C@H](C)OC)c2c3cc(ccc31)N1CCO[C@@H](C[C@H](NC(=O)[C@H](C(C)C)N(C)C(=O)[C@@]3(F)CCC(C(=O)C#CC(C)(C)N4CCC4)C3)C(=O)N3CCC[C@H](N3)C(=O)OCC(C)(C)C2)C1` (stereo partly shown) [Example A726], the IC50 was < 10 nM.
